{"source": "patent US6667040B2", "about": "“Bovine footrot treatment and prevention” (University Technologies International, Inc., priority 1997, dated 2003)", "format_in_all_cases": "cell-based", "key": {"[1]": {"system": "Prevotella intermedia (8-2)", "assay": "Penicillin G disc diffusion susceptibility test", "settings": "with regrowth"}, "[2]": {"system": "Isolates of Porphyromonas levii", "assay": "Penicillin G susceptibility of Porphyromonas levii isolates"}, "[3]": {"system": "Prevotella intermedia (14-7)", "assay": "Penicillin G disc diffusion susceptibility test"}, "[4]": {"system": "Prevotella intermedia (5-2)", "assay": "Penicillin G disc diffusion susceptibility test", "settings": "with regrowth"}, "[5]": {"system": "Bacteroides fragilis (7-6)", "assay": "Penicillin G disc diffusion susceptibility test"}, "[6]": {"settings": "disc with 10 units penicillin G"}}, "data": [{"smiles": "CC1(C)S[C@@H]2[C@H](NC(=O)Cc3ccccc3)C(=O)N2[C@H]1C(=O)O", "note": "[penicillin G]", "values": [{"measurement": "P2 zone of inhibition", "setting": "[1]; disc with 2 units penicillin G", "value": 27, "unit": "mm"}, {"measurement": "P10 zone of inhibition", "setting": "[1]; [6]", "value": "35 (with regrowth) mm"}, {"measurement": "susceptibility to penicillin G", "setting": "[2]", "value": "sensitive"}, {"measurement": "P2 zone of inhibition", "setting": "[3]; disc with 2 units penicillin G", "value": "34 (with mm"}, {"measurement": "regrowth within P2 zone of inhibition", "setting": "[3]; disc with 2 units penicillin G, regrowth around the disc", "value": 22, "unit": "mm regrowth)"}, {"measurement": "P10 zone of inhibition", "setting": "[3]; [6]", "value": 38, "unit": "mm"}, {"measurement": "regrowth within P10 zone of inhibition", "setting": "[3]; disc with 10 units penicillin G, regrowth around the disc", "value": 23, "unit": "mm"}, {"measurement": "P2 zone of inhibition", "setting": "[4]; disc with 2 units penicillin G", "value": 22, "unit": "mm"}, {"measurement": "P10 zone of inhibition", "setting": "[4]; [6]", "value": "28 (with regrowth) mm"}, {"measurement": "susceptibility to penicillin", "setting": "[5]; disc diffusion", "value": "clearly resistant"}, {"measurement": "P2 zone of inhibition", "setting": "[5]; disc with 2 units penicillin G", "value": 0, "unit": "mm"}, {"measurement": "P10 zone of inhibition", "setting": "[5]; [6]", "value": 0, "unit": "mm"}]}]}
